The molecules below were run against T1, human TLR7 (Homo sapiens, UniProt Q9NYK1) (assay: HEK293-Blue-hTLR-7 cells assay). Conditions: HEK293-Blue-hTLR7 cells, R848 stimulation, 20 hrs, SEAP reporter; read-out: HEK/hTLR7 IC50.
T1 construct: host or cells: HEK293 (HEK-Blue hTLR7)
T1 sequence (Q9NYK1 27-1049): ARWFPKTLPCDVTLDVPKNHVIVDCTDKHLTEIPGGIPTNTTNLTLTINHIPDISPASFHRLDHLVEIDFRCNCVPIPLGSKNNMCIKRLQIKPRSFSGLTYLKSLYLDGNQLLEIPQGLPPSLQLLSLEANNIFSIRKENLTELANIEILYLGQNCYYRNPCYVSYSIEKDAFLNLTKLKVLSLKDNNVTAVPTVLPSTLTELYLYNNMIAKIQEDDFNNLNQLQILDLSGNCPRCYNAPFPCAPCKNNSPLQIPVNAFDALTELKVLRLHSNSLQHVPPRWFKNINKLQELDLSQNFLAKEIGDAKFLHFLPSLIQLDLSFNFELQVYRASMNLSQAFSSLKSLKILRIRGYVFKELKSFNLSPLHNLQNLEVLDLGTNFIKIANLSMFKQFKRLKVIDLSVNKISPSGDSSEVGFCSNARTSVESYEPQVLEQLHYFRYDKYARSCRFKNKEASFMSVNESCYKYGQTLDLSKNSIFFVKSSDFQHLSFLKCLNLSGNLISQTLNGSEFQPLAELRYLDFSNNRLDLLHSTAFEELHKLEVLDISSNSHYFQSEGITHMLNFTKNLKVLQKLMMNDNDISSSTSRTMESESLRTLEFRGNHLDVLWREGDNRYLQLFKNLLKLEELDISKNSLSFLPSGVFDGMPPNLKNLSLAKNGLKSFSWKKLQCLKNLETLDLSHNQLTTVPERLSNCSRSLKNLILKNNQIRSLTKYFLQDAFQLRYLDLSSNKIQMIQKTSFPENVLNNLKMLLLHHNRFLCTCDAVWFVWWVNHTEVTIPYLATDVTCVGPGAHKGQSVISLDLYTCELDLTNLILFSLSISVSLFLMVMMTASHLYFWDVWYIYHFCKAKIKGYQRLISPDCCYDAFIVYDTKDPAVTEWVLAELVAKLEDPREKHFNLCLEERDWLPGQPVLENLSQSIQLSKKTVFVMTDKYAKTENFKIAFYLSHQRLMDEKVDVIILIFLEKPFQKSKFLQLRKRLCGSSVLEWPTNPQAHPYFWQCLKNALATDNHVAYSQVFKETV
Assay type: cell-based
From the text: HEK293-Blue-hTLR-7 Cells Assay:
A stable HEK293-Blue-hTLR-7 cell line was purchased from InvivoGen (Cat. #: hkb-htlr7, San Diego, Calif., USA). These cells were originally designed for studying the stimulation of human TLR7 by monitoring the activation of NF-κB. A SEAP (secreted embryonic alkaline phosphatase) reporter gene was placed under the control of the IFN-β minimal promoter fused to five NF-κB and AP-1-binding sites. The SEAP was induced by activating NF-κB and AP-1 via stimulating HEK-Blue hTLR7 cells with TLR7 ligands. Therefore the reporter expression was declined by TLR7 antagonist under the stimulation of a ligand, such as R848 (Resiquimod), for incubation of 20 hrs. The cell culture supernatant SEAP reporter activity was determined using QUANTI-Blue™ kit (Cat. #: rep-qbl, Invivogen, San Diego, Ca, USA) at a wavelength of 640 nm, a detection medium that turns purple or blue in the presence of alkaline phosphatase.
HEK293-Blue-hTLR7 cells were incubated at a density of 250,000˜450,000 cells/mL in a volume of 170 μL in a 96-well plate in Dulbecco's Modified Eagle's medium (DMEM) containing 4.5 g/L glucose, 50 U/mL penicillin, […], […], 2 mM L-glutamine, 10% (v/v) heat-inactivated fetal bovine serum with addition of 20 μL test compound in a serial dilution in the presence of final DMSO at 1% and 10 μL of 20 uM R848 in above DMEM, perform incubation under 37° C. in a CO2 incubator for 20 hrs. Then 20 μL of the supernatant from each well was incubated with 180 μL Quanti-blue substrate solution at 37° C. for 2 hrs and the absorbance was read at 620-655 nm using a spectrophotometer. The signaling pathway that TLR7 activation leads to downstream NF-κB activation has been widely accepted, and therefore similar reporter assay was modified for evaluating TLR7 antagonist.
In the case of C[C@@H]1CN(c2ccc(C#N)c3ncccc23)C[C@@H]2c3cnc(N4CCNCC4)cc3CN12 [Example 2, 5-[(2S,6R)-6-methyl-11-piperazin-1-yl-4,7,12-triazatricyclo[7.4.0.02,7]trideca-1(9),10,12-trien-4-yl] quinoline-8-carbonitrile], the IC50 is reported as 3.1 nM.
N#Cc1ccc(N2CCN3Cc4nc(N5CCNCC5)ccc4[C@@H]3C2)c2cccnc12 [Example 3A, 5-[(2R)-11-piperazin-1-yl-4,7,10-triazatricyclo[7.4.0.02,7]trideca-1(9),10,12-trien-4-yl]quinoline-8-carbonitrile] gave an IC50 of 14.8 nM.
Work on CC1(N)CCN(c2ccc3c(n2)CN2CCN(c4ccc(C#N)c5ncccc45)C[C@@H]32)CC1 [Example 4A, 5-[(2R)-11-(4-amino-4-methyl-1-piperidyl)-4,7,10-triazatricyclo[7.4.0.02,7]trideca-1(9),10,12-trien-4-yl]quinoline-8-carbonitrile] yielded an IC50 of 8.7 nM.
For C[C@@H]1CN(c2ccc(C#N)c3ncccc23)C[C@@H]2c3ccc(N4CCNCC4)nc3CN12 [Example 5, 5-[(2S,6R)-6-methyl-11-piperazin-1-yl-4,7,10-triazatricyclo[7.4.0.02,7]trideca-1(9),10,12-trien-4-yl]quinoline-8-carbonitrile], the IC50 was 0.9 nM.
For C[C@@H]1CN(c2ccc(C#N)c3ncccc23)C[C@@H]2c3ccc(N4CC5CNCC(C4)O5)nc3CN12 [Example 6, 5-[(2S,6R)-6-methyl-11-(9-oxa-3,7-diazabicyclo[3.3.1]nonan-3-yl)-4,7,10-triazatricyclo[7.4.0.02,7]trideca-1(9),10,12-trien-4-yl]quinoline-8-carbonitrile], the IC50 was 4.9 nM.
[2H]c1ccc2c(N3C[C@@H](C)N4Cc5nc(N6CC[C@@](C)(N)C6)ccc5[C@H]4C3)ccc(C#N)c2n1 [Example 7, 5-[(2S,6R)-11-[(3R)-3-amino-3-methyl-pyrrolidin-1-yl]-6-methyl-4,7,10-triazatricyclo[7.4.0.02,7]trideca-1(9),10,12-trien-4-yl]-2-deuterio-quinoline-8-carbonitrile] was tested, and the IC50 was 2.8 nM.
[2H]c1ccc2c(N3C[C@@H](C)N4Cc5nc(N6CC[C@](C)(N)C6)ccc5[C@H]4C3)ccc(C#N)c2n1 [Example 8, 5-[(2S,6R)-11-[(3S)-3-amino-3-methyl-pyrrolidin-1-yl]-6-methyl-4,7,10-triazatricyclo[7.4.0.02,7]trideca-1(9),10,12-trien-4-yl]-2-deuterio-quinoline-8-carbonitrile] gave an IC50 of 1.3 nM.
[2H]c1ccc2c(N3C[C@@H](C)N4Cc5nc(N6CCC7(CNC7)C6)ccc5[C@H]4C3)ccc(C#N)c2n1 [Example 9, 2-Deuterio-5-[(2S,6R)-11-(2,6-diazaspiro[3.4]octan-6-yl)-6-methyl-4,7,10-triazatricyclo[7.4.0.02,7]trideca-1(9),10,12-trien-4-yl]quinoline-8-carbonitrile] was tested, and the IC50 was 6.5 nM.
[2H]c1ccc2c(N3C[C@@H](C)N4Cc5nc(N6CC[C@H]7CNC[C@H]76)ccc5[C@H]4C3)ccc(C#N)c2n1 [Example 10, 5-[(2S,6R)-11-[(3aS,6aS)-3,3a,4,5,6,6a-hexahydro-2H-pyrrolo[2,3-c]pyrrol-1-yl]-6-methyl-4,7,10-triazatricyclo[7.4.0.02,7]trideca-1(9),10,12-trien-4-yl]-2-deuterio-quinoline-8-carbonitrile] was tested, and the IC50 was 1.9 nM.
[2H]c1ccc2c(N3C[C@@H](C)N4Cc5nc(N6CC[C@@H](N)[C@H](OC)C6)ccc5[C@H]4C3)ccc(C#N)c2n1 [Example 11, 5-[(2S,6R)-11-[(3R,4R)-4-amino-3-methoxy-1-piperidyl]-6-methyl-4,7,10-triazatricyclo[7.4.0.02,7]trideca-1(9),10,12-trien-4-yl]-2-deuterio-quinoline-8-carbonitrile] was tested, and the IC50 was 3.7 nM.
For [2H]c1ccc2c(N3C[C@@H](C)N4Cc5nc(N6CC[C@H](N)[C@@H](OC)C6)ccc5[C@H]4C3)ccc(C#N)c2n1 [Example 12, 5-[(2S,6R)-11-[(3S,4S)-4-amino-3-methoxy-1-piperidyl]-6-methyl-4,7,10-triazatricyclo[7.4.0.02,7]trideca-1(9),10,12-trien-4-yl]-2-deuterio-quinoline-8-carbonitrile], the IC50 was 1.6 nM.
In the case of [2H]c1ccc2c(N3C[C@@H](C)N4Cc5nc(N6CC[C@H](N)[C@H](OC)C6)ccc5[C@H]4C3)ccc(C#N)c2n1 [Example 13, 5-[(2S,6R)-11-[(3R,4S)-4-amino-3-methoxy-1-piperidyl]-6-methyl-4,7,10-triazatricyclo[7.4.0.02,7]trideca-1(9),10,12-trien-4-yl]-2-deuterio-quinoline-8-carbonitrile], the IC50 is reported as 1.7 nM.
With [2H]c1ccc2c(N3C[C@@H](C)N4Cc5nc(N6CC[C@H](OC)[C@@H](N)C6)ccc5[C@H]4C3)ccc(C#N)c2n1 [Example 14, 5-[(2S,6R)-11-[(3S,4S)-3-amino-4-methoxy-1-piperidyl]-6-methyl-4,7,10-triazatricyclo[7.4.0.02,7]trideca-1(9),10,12-trien-4-yl]-2-deuterio-quinoline-8-carbonitrile] the IC50 was 3.4 nM.
For [2H]c1ccc2c(N3C[C@@H](C)N4Cc5nc(N6CC[C@@H](OC)[C@H](N)C6)ccc5[C@H]4C3)ccc(C#N)c2n1 [Example 15, 5-[(2S,6R)-11-[(3R,4R)-3-amino-4-methoxy-1-piperidyl]-6-methyl-4,7,10-triazatricyclo[7.4.0.02,7]trideca-1(9),10,12-trien-4-yl]-2-deuterio-quinoline-8-carbonitrile], the IC50 was 2.6 nM.
[2H]c1ccc2c(N3C[C@@H](C)N4Cc5nc(N6C[C@@H]7C[C@H]6CN7)ccc5[C@H]4C3)ccc(C#N)c2n1 [Example 16, 2-Deuterio-5-[(2S,6R)-11-[(1S,4S)-2,5-diazabicyclo[2.2.1]heptan-2-yl]-6-methyl-4,7,10-triazatricyclo[7.4.0.02,7]trideca-1(9),10,12-trien-4-yl]quinoline-8-carbonitrile] gave an IC50 of 1.7 nM.
[2H]c1ccc2c(N3C[C@@H](C)N4Cc5nc(N6C[C@H]7C[C@@H]6CN7)ccc5[C@H]4C3)ccc(C#N)c2n1 [Example 17, 2-Deuterio-5-[(2S,6R)-11-[(1R,4R)-2,5-diazabicyclo[2.2.1]heptan-2-yl]-6-methyl-4,7,10-triazatricyclo[7.4.0.02,7]trideca-1(9),10,12-trien-4-yl]quinoline-8-carbonitrile] showed an IC50 of 2.7 nM.
For [2H]c1ccc2c(N3C[C@@H](C)N4Cc5nc(N6CCC7(CC6)CNCCO7)ccc5[C@H]4C3)ccc(C#N)c2n1 [Example 18, 2-Deuterio-5-[(2S,6R)-6-methyl-11-(1-oxa-4,9-diazaspiro[5.5]undecan-9-yl)-4,7,10-triazatricyclo[7.4.0.02,7]trideca-1(9),10,12-trien-4-yl]quinoline-8-carbonitrile], the IC50 was 1.3 nM.
Molecule [2H]c1ccc2c(N3C[C@@H](C)N4Cc5nc(N6CCC(C)(N)CC6)ccc5[C@H]4C3)ccc(C#N)c2n1 [Example 19, 5-[(2S,6R)-11-(4-amino-4-methyl-1-piperidyl)-6-methyl-4,7,10-triazatricyclo[7.4.0.02,7]trideca-1(9),10,12-trien-4-yl]-2-deuterio-quinoline-8-carbonitrile] has an IC50 of 1.1 nM.

Source: patent US12503471B2, “Triazatricycle compounds for the treatment of autoimmune disease” (Hoffmann-La Roche Inc., priority 2019, dated 2025)
